Each structure is given as a SMILES string.

Turning to `CCn1nc(C)c2c1C(=O)NCC(c1ccc(NS(=O)(=O)c3ccccc3S(=O)(=O)c3ccccc3)cc1)=N2`, the melting point is greater than 230 °C. Next, `CSc1cccc(NC(=O)N(O)C2CCCCC2)c1`: 147 to 148 °C; `CCOc1ccccc1C=[N+]([O-])C1CCCCC1`: 124 °C. The same measure for `CCCCOc1c(N(C)C(=O)OC(C)(C)C)n(CC(C)(C)C)c(=O)c2ccc(CC(N)=O)cc12`: 114 to 115 °C; for `COc1ccc(N2CCN(CCC3CN(C)C(=O)O3)CC2)cc1OC` (centres undefined): 90 to 92 °C; for `O=C(O)C1c2ccccc2C=Cc2ccccc21`: 244 to 245 °C. Next, `CCCCn1nc(CCc2ccccc2)nc1Cc1ccc(-c2ccccc2-c2nnn[nH]2)nc1`: 121 to 123 °C. Take `O=C1COCCOCC(=O)NCCOCCOCCN1`: the melting point turned out to be 111 °C.

Regarding `OC(c1ccccc1)C1CCCN1` (centres undefined), the melting point amounted to 110 °C. Next, `NS(=O)(=O)c1nccn1-c1nccs1`: 157 to 162 °C. The same measure for `O=S(=O)(CCCl)CCC(F)(F)C(F)(F)C(F)(F)C(F)(F)C(F)(F)C(F)(F)C(F)(F)C(F)(F)F`: 130 to 131 °C; for `O=C(O)C/C(C(=O)O)=C(\CCCCCCCCCCCCCCCCOS(=O)(=O)O)C(=O)O`: 63 to 65 °C. The same measure for `COC(=O)C1=C(C)NC2=C(C1c1cccc([N+](=O)[O-])c1)S(=O)(=O)CCC2` (centres undefined): 236 to 238 °C; for `Cn1ccc2cc(NC(=O)c3cc4ccccc4n3Cc3cccc(C(F)(F)F)c3)ccc21`: 189 to 190 °C. As to `Cc1c(C=CCN2CC=C(c3ccccc3)CC2)cnn1-c1ncccn1`, the melting point was in the range of 112 to 114 °C. Next, `CC(C)C1(C)CC(=O)CC(C)(C)N1OC(C)(C)C#N` (centres undefined): 32 to 44 °C; `O=c1ccn(-c2cc3[nH]c(=O)c(=O)[nH]c3cc2C(F)(F)F)cc1`: 410 to 420 °C; `COc1ccc(Cl)c(Nc2c(C#N)cnc3c2C=C2N=CN=C2C3)c1`: 296 to 298 °C. Next, `COc1cc2c(cc1CCCCO)oc1cc(-c3ccccc3Cl)c3c(c12)C(=O)NC3=O`: 158 to 162 °C. Next, `Cc1cccc(NC(=O)c2ccccc2CN2C(=O)C3(COc4cc5c(cc43)CCO5)c3ccccc32)c1` (centres undefined): 229 to 231 °C; `O=[N+]([O-])c1ccc(N=Nc2cc(OCCO)c(N(CCCO)CCCO)cc2OCCO)cc1`: 132 to 134 °C. Turning to `ClCCOc1cccc2[nH]ccc12`, the melting point amounted to 60 °C. Next, `N#CCc1ccc(CCOc2ccc(CC3SC(=N)NC3=O)cc2)nc1` (centres undefined): 211 to 212 °C; `CCOC(=O)c1cnn2c1nc(NCCCN(C)C)c1cnc3c(cnn3CC)c12`: 212 to 215 °C.

`CCC12CCC3C4=C(CCC3C1CCC2O)CC(OC)=CC4` (centres undefined) displayed a melting point of 98 to 104 °C. `NC(=O)Cc1ccc(Nc2nc(OCC3CCCCC3)c3nc[nH]c3n2)cc1`: the melting point is 234 °C. As to `COCCn1cc2c(C3C(=O)Nc4ccc(Br)cc43)nc(NCCN3CCOCC3)nc2n1` (centres undefined), the melting point was greater than 300 °C. The same measure for `CCOC(=O)C(=CNc1ccc(Br)cn1)[N+](=O)[O-]`: 141 to 142 °C; for `COc1cc(OC)c(-c2cc3ccccc3s2)cc1/C=C/C(=O)c1ccc(C(N)=O)cc1`: 240 to 241 °C; for `COc1ccc(COc2cc(N)c(Cl)cc2C(=O)CCCCN2CCCCC2)cc1OC`: 120 to 122 °C. Next, `CCC(=O)NC(C)OC` (centres undefined): 29 to 32 °C. Next, `CC(=O)ON1C(C)(C)CC(OC(=O)CCCCCCCCC(=O)OC2CC(C)(C)N(OC(C)=O)C(C)(C)C2)CC1(C)C`: 81 to 94 °C; `COC(=O)Cc1ccc(-c2ccc(O)cc2)c(F)c1`: 115 to 118 °C.

On to `O=c1nc(-c2cccc(S(=O)CCc3ccccc3)n2)sc2ccccc12` (centres undefined), for which the melting point is 164 to 166 °C. Next, `COc1ccc(Oc2cccc3ncnc(NC(=O)Nc4ccccc4)c23)cc1`: 231 to 232 °C. The same measure for `CCOC(=O)C=Cc1ccc(C=Cc2ccc(C=CC(=O)O)cc2)cc1`: 245 to 248 °C; for `CCCC(=O)c1cnc2ccc(COC(=O)c3ccccc3)cc2c1Nc1ccccc1C`: 142 to 144 °C; for `CC(C)(C)OC(=O)NCCC[C@@H](CO)NC(=O)OCC1c2ccccc2-c2ccccc21`: 107 to 109 °C. `COc1ccc2c(c1)OC(CN)C2` (centres undefined) showed a melting point greater than 220 °C. Next, `O=C(O)c1c(Cc2cc3c(cc2Cl)OCO3)c(-c2ccccn2)nn1CC1CCC(C(=O)O)CC1` (centres undefined): 261 °C. The same measure for `CCOC(=O)Cc1c(C)n(Cc2cccc(C(F)(F)F)c2)c2ccc(OC)cc12`: 95 to 97 °C. The same measure for `O=C(OCc1ccccc1)N1C[C@@H](O)[C@H](Oc2cccc(Cl)c2Cl)C1` (relative stereo): 130 to 132 °C; for `CSc1snc(SCOCC#CI)c1C#N`: 87 to 88 °C. Take `COC(=O)c1cccc(C)c1NS(=O)(=O)c1nc2nc(C)cc(C)n2n1`: the melting point lay in the range of 181 to 182 °C. Next, `CCn1c([N+](=O)[O-])cnc1C=CN(C)C`: 124 to 125 °C. The same measure for `Cc1ccc(-c2c(Cl)ncn2-c2ccc(S(C)(=O)=O)cc2)cc1`: 182 °C; for `CCOC(=O)c1c(C(C)(C)O)nc(CO)n1Cc1ccc(-c2ccccc2-c2nnnn2C(c2ccccc2)(c2ccccc2)c2ccccc2)cc1`: 151 to 152 °C; for `O=C1c2ccccc2C(=O)N1CC(=O)N1c2ccccc2N(c2ccccc2)C(=O)C2CCCC21` (centres undefined): 272 to 273 °C. `c1ccc(C(=C2CCNCC2)c2ccccc2)cc1` had a melting point of 85 to 86 °C. The same measure for `NC1(C(=O)O)C=CC(Br)=C(F)C1` (centres undefined): 180 °C; for `CNS(=O)(=O)c1ccc(Nc2cc(N3CCCCC3)cc(-c3ccc(F)cc3)n2)cc1`: 191 to 192 °C.

`CSC(=S)N1CCN(Cc2ccccc2O)CC1` gave a melting point of 147 °C. The same measure for `O=C(Nc1ccc(Cl)cc1)Nn1cnc2c(O)cccc2c1=O`: 266 to 268 °C. `C#CC(C)Oc1cc(Cl)ccc1-n1c(=O)cc(C(F)(F)F)n(C)c1=O` (centres undefined) gave a melting point of 96 to 99 °C. Next, `CC(C)(N)CNC(=O)Cc1ccccc1`: 68 to 71 °C. Next, `CC(C)(C)C(=O)NCc1cccs1`: 64 to 65 °C. Next, `CCC(=O)N1C(=O)c2cc(C)ccc2Oc2ncccc21`: 142 to 145 °C.

With `ON=C(c1cccc(F)c1)c1ccc(O)c(Cl)c1Cl`, the melting point is 178 to 185 °C. The same measure for `CC(=O)Nc1ccc(Cl)cc1C(=O)c1ccccc1`: 114 °C; for `COc1ccc2c(=O)cc(CS(C)=O)oc2c1` (centres undefined): 157 to 159 °C. The same measure for `CC(C)(C)NCC(O)c1cc(F)cc(C#N)c1F` (centres undefined): 99 to 101 °C; for `CCCCCC(=O)c1c(C)n(C(=O)OC)c(=O)n1C(=O)OC`: 84 to 86 °C. The compound `CCc1ccc2c(c1)C(C(=O)O)c1ccccc1CO2` (centres undefined) came in with a melting point of 154 to 155 °C. Next, `N#CCc1ccc(N)c2[nH]ncc12`: 164 to 165 °C; `O=C(CCCl)Nc1cccc(NC(=O)Nc2ccc(N(CCCl)CCCl)cc2)c1`: 232 to 233 °C. The same measure for `CCCCCCCCCCCC#Cc1ccccc1C=C(C(=O)OCC)P(=O)(O)O`: 68 to 69 °C; for `CCN(CC)CCNC(=O)C1N=C(c2ccccc2)c2cc(Cl)ccc2NC1=O` (centres undefined): 220 °C; for `CCCOCCOc1ccccc1COc1ccc2c(c1)C=C(C(=O)Nc1ccc(CN(C)C3CCOCC3)cc1)CCS2(=O)=O`: 136 to 138 °C. Next, `NS(=O)(=O)c1cc(C(=O)O)cc(OCc2ccsc2)c1-c1ccccc1`: 222 to 223 °C. `Cc1nc(NC(=O)C2=C(O)c3ccc4ccccc4c3S(=O)(=O)N2C)sc1C` gave a melting point of 264 to 265 °C. The same measure for `O=C(O)C1=Cc2cc(Cl)c(C(F)(F)F)cc2OC1C(F)(F)F` (centres undefined): 181 to 182 °C; for `COC(=O)c1cc2ccc(SCCCc3cc4c(cc3OCc3ccccc3)CC(CCc3ccccc3)O4)cc2nc1OC` (centres undefined): 96 to 98 °C; for `O=C1N(Cc2ccccn2)c2ccccc2C12COc1cc3c(cc12)OCC3` (centres undefined): 198 to 200 °C. Next, `Cn1c(CC#N)ccc1C(=O)c1ccc([N+](=O)[O-])cc1`: 167 to 169 °C; `Nc1cccc(CN2CCN(C(c3ccccc3)c3ccccc3)CC2)c1`: 104 to 106 °C. `Nc1cc(F)c(F)cc1C(=O)c1ccccc1` came in with a melting point of 100 to 101 °C. Next, `Nc1ncnc2c1ncn2[C@@H]1C=C[C@H](CO)C1`: 121 to 124 °C; `Clc1ccccc1-c1c(I)nc2ncnn2c1NC1CCCC1`: 150 °C; `CC1Oc2cc3nc(S)[nH]c3cc2O1`: greater than 300 °C. `Cc1oc(-c2ccc3ccccc3c2)nc1COc1ccc(CCCC#N)cc1` displayed a melting point of 149 to 151 °C. For `COc1ccc(-c2cc(=S)n(Cc3cc(OC)c(OC)c(OC)c3)nc2-c2ccc(OC)cc2)cc1`, the melting point is 142 to 146 °C. Next, `CC1(C2OCCO2)C=CC(C#N)=CC1` (centres undefined): 70 °C; `CCOC(=O)C(O)=CC=C(SC)C(=O)c1ccc(O)c(O)c1`: 156 °C. Next, `O=C(Nc1ccc(Cl)c(C(F)(F)F)c1)Oc1ccc2c(c1)CCCN2`: 150 °C. The same measure for `Cc1ccc(C(=O)OC(C)(C)C)cc1C=O`: 53 to 55 °C; for `COC(=O)CCc1cc2cc(Cl)ccc2n1S(=O)(=O)c1ccc(C(C)(C)C)cc1`: 130 to 133 °C; for `Nc1ccccc1NS(=O)(=O)c1cc(C(=O)O)cc(NCc2ccccc2)c1Oc1ccccc1`: 113 to 116 °C. The compound `COC(=O)Cn1c(CCc2ccccc2)ccc(NC(=O)CCc2ccccc2)c1=O` displayed a melting point of 105 to 108 °C. The same measure for `CCOC(=O)C(C(=O)OCC)c1ccc([N+](=O)[O-])cn1`: 91.5 to 93.5 °C.

Broadly, the melting point is the temperature, or range, at which the solid turns liquid.

The record behind these values is a melting point compilation (Tetko et al.; mined from patent text by program, amines drawn as free bases though some values may be those of a salt).
